Values joined by “and” are separate entries in the source; they are usually repeats but may differ in a detail not shown here. Equal entries are not always repeated. Where two headings read alike, the source gives them in different places.
Columns and labels:
Pseudomonas sp. = test: MIC vs Pseudomonas sp.; assay type: cell-based
Salmonella = test: MIC vs Salmonella; assay type: cell-based
Serratia marc. = test: MIC vs Serratia marc.; assay type: cell-based
E. coli [1] = test: MIC vs E. coli; assay type: cell-based
Staph. Villaluz = test: MIC vs Staph. Villaluz; assay type: cell-based
Klebs. pneumo. [2] = test: MIC vs Klebs. pneumo.; assay type: cell-based
Strep. faecalis = test: MIC vs Strep. faecalis; assay type: cell-based; conditions: Enterococcus faecalis
S. aureus = test: MIC vs S. aureus; assay type: cell-based; conditions: Staphylococcus aureus
Klebs. pneumo. [3] = test: ED50 vs Klebs. pneumo.; assay type: in vivo
E. coli [4] = test: ED50 vs E. coli; assay type: in vivo; conditions: Escherichia coli
Entero. aerog. = test: MIC vs Entero. aerog.; assay type: cell-based
Shigella = test: MIC vs Shigella; assay type: cell-based
[5] = Escherichia coli, second column, read-out: MIC

Q: How did the MIC (Pseudomonas sp.) turn out when `CC(=O)OCC1=C(C(=O)O)N2C(=O)[C@@H](NC(=O)C(N)c3ccc(CO)cc3)[C@H]2SC1` (mixture of isomers) [Compound 37316, 7β-(DL-α-amino-p-hydroxymethylphenylacetamido)cephalosporanic acid] was run?
A: > 200 µg/mL

Q: What about the MIC (Salmonella) of the same compound?
A: 12.5 µg/mL and 25 μg/me

Q: What about the MIC (Serratia marc.) of the same compound?
A: > 200 µg/mL

Q: And the MIC (E. coli [1])?
A: 50 µg/mL

Q: And the MIC (E. coli [1]; [5])?
A: 25 µg/mL

Q: What about the MIC (Staph. Villaluz) of the same compound?
A: 100 µg/mL

Q: What about the MIC (Klebs. pneumo. [2]; second column) of the same compound?
A: 25 µg/mL

Q: And the MIC (Strep. faecalis)?
A: 200 µg/mL

Q: What about the MIC (S. aureus; first column) of the same compound?
A: 12.5 µg/mL

Q: And the MIC (S. aureus; second column)?
A: 6.3 µg/mL

Q: And the ED50 (Klebs. pneumo. [3]; po)?
A: > 50 mg/kg

Q: What about the ED50 (Klebs. pneumo. [3]; sc) of the same compound?
A: 20 mg/kg

Q: What about the ED50 (E. coli [4]; po) of the same compound?
A: > 50 mg/kg

Q: What about the ED50 (E. coli [4]; sc) of the same compound?
A: 8.7 mg/kg

Q: With `CC1=C(C(=O)O)N2C(=O)[C@@H](NC(=O)C(N)c3ccc(CO)cc3)[C@H]2SC1` (mixture of isomers) [Compound 47216, 7β-(DL-α-Amino-p-hydroxymethylphenylacetamido)desacetoxycephalosporanic acid] as the compound, how does the MIC (Pseudomonas sp.) read?
A: > 200 µg/mL

Q: What about the MIC (Salmonella) of the same compound?
A: 25 µg/mL

Q: What about the MIC (Entero. aerog.) of the same compound?
A: 50 µg/mL

Q: What about the MIC (Serratia marc.) of the same compound?
A: > 200 µg/mL

Q: What about the MIC (E. coli [1]; Escherichia coli, first column, read-out: MIC) of the same compound?
A: 25 µg/mL

Q: And the MIC (E. coli [1]; [5])?
A: 50 µg/mL

Q: What about the MIC (Staph. Villaluz) of the same compound?
A: 200 µg/mL

Q: And the MIC (Klebs. pneumo. [2]; first column)?
A: 25 µg/mL

Q: What about the MIC (Klebs. pneumo. [2]; second column) of the same compound?
A: 25 µg/mL

Q: What about the MIC (Shigella) of the same compound?
A: 25 µg/mL

Q: And the MIC (S. aureus; first column)?
A: 6.3 µg/mL

Q: And the MIC (S. aureus; second column)?
A: 25 µg/mL

Q: And the ED50 (Klebs. pneumo. [3]; po)?
A: 50 mg/kg

Q: And the ED50 (Klebs. pneumo. [3]; sc)?
A: > 50 mg/kg

Q: And the ED50 (E. coli [4]; po)?
A: 29 mg/kg

Q: And the ED50 (E. coli [4]; sc)?
A: 33 mg/kg
